Results: patent US20260256792A1, “TREATMENT OF CHRONIC SPONTANEOUS URTICARIA BY ADMINISTERING (R)-2-[3-[4-AMINO-3-(2-FLUORO-4-PHENOXY-PHENYL)PYRAZOLO[3,4-D]PYRIMIDIN-1-YL]PIPERIDINE-1-CARBONYL]-4-METHYL-4-[4-(OXETAN-3-YL)PIPERAZIN-1-YL]PENT-2-ENENITRILE” (priority 2023, published 2026)

Test system: moderate-to-severe chronic spontaneous urticaria (CSU)
Assay: Phase 2 CSU study: urticaria activity score over 7 days (UAS7)
Assay type: in vivo, human
Design: key to UAS7 Median / UAS7 Change from baseline Median / UAS7 change from baseline, Q1 / UAS7 change from baseline, Q3 / UAS7 change from baseline, Max / UAS7 Change from baseline LS Mean (SE): UAS7 points; daily UAS score ranges 0–6 points/day, over 7 days
Description: The study comprises a 12 week, randomized, double-blind, placebo-controlled, multi-center, dose-ranging efficacy and safety phase, followed by a 40 week open label extension (OLE) phase (see FIG. 1). The study consists of three phases and an optional OLE phase. […] Clinically, CSU is characterized by the spontaneous and recurrent appearance of pruritic hives. The proposed primary endpoints were the UAS7 at Week 12 in EU and EU reference countries and the ISS7 in the US. Regardless of where a participant was from, all assessments were the same. The UAS7 score is a composite score containing both the HSS7 and the ISS7. This allowed a global assessment of the two key components of urticaria: hives and itch. […] The UAS is a validated PRO measure. […] The daily UAS scores range from 0 to 6 point/day. […] Patients were to complete the UAS using the e-diary. […] The following secondary endpoints were to be analyzed using the same approach as for the primary endpoint: • Change from baseline in UAS7 at Week 4 • Change from baseline in UAS7 at Week 12 (for US and US reference countries) • Change from baseline in ISS7 at Week 12 (except US and US reference countries) • Change from baseline in HSS7 at Week 12 The following responder secondary endpoints were to be analyzed using the Cochran-Mantel-Haenszel test adjusted by region: • Proportion of participants with UAS7<6 at Week 12 • Proportion of participants with UAS7=0 at Week 12 Participants who received selected prohibited medications and/or rescue medications were to be considered as non-responders for time points after the medication usage. For other participants, all available data including those collected during the off-treatment period were to be used to determine the responder/non-responder status. Missing data were to be considered as non-responders.

[1] = Week 9, 400 mg QPM, Prior Omalizumab Use
[2] = Week 9, 400 mg QPM, omalizumab-naive participants
[3] = Week 9, 400 mg TID, ITT population
[4] = Week 9, 400 mg TID, Omalizumab-Naïve
[5] = Week 9, 400 mg TID, Prior Omalizumab Use
[6] = Week 9, 400 mg TID, omalizumab-naive participants
[7] = Week 10, 400 mg BID, ITT population
[8] = Week 10, 400 mg BID, Omalizumab-Naïve
[9] = Week 10, 400 mg BID, Prior Omalizumab Use
[10] = Week 10, 400 mg BID, omalizumab-naive participants
[11] = Week 10, 400 mg QPM, ITT population
[12] = Week 10, 400 mg QPM, Omalizumab-Naïve
[13] = Week 10, 400 mg QPM, Prior Omalizumab Use
[14] = Week 10, 400 mg QPM, omalizumab-naive participants

## CC(C)(C=C(C#N)C(=O)N1CCC[C@@H](n2nc(-c3ccc(Oc4ccccc4)cc3F)c3c(N)ncnc32)C1)N1CCN(C2COC2)CC1 [rilzabrutinib, (R)-2-[3-[4-amino-3-(2-fluoro-4-phenoxy-phenyl)pyrazolo[3,4-d]pyrimidin-1-yl]piperidine-1-carbonyl]-4-methyl-4-[4-(oxetan-3-yl)piperazin-1-yl]pent-2-enenitrile]
[1]
  UAS7 Change from baseline Mean (SD): −23.00 (NC)
  UAS7 Change from baseline Median: −23.00
  UAS7 Mean (SD): 18.00 (NC)
  UAS7 Median: 18.00
  UAS7 Percent change from baseline Mean (SD): −56.10 (NC) %
  UAS7 Percent change from baseline Median: −56.10%
[2]
  Non-responder, UAS7 reduction from baseline of 10 points or more: 20 (54.1) n (%)
  OR for rilzabrutinib vs. placebo, UAS7 reduction of 10 points or more: 1.522
  RRD (%) for rilzabrutinib vs. placebo, UAS7 reduction of 10 points or more: 9.7 %
  Responder, UAS7 reduction from baseline of 10 points or more: 17 (45.9) n (%)
[3]
  Non-responder, UAS7 reduction from baseline of 10 points or more: 13 (31.7) n (%)
  OR for rilzabrutinib vs. placebo, UAS7 reduction of 10 points or more: 3.243
  RRD (%) for rilzabrutinib vs. placebo, UAS7 reduction of 10 points or more: 26.2 %
  Responder, UAS7 reduction from baseline of 10 points or more: 28 (68.3) n (%)
[4]
  UAS7 Change from baseline Mean (SD): −17.88 (11.04)
  UAS7 Change from baseline Median: −17.00
  UAS7 Mean (SD): 12.57 (9.72)
  UAS7 Percent change from baseline Mean (SD): −57.42 (32.58) %
  UAS7 Percent change from baseline Median: −60.00%
[5]
  UAS7 Change from baseline Median: −24.92
  UAS7 Median: 4.00
  UAS7 Percent change from baseline Mean (SD): −77.44 (25.29) %
  UAS7 Percent change from baseline Median: −85.78%
[6]
  Non-responder, UAS7 reduction from baseline of 10 points or more: 12 (34.3) n (%)
  OR for rilzabrutinib vs. placebo, UAS7 reduction of 10 points or more: 3.460
  RRD (%) for rilzabrutinib vs. placebo, UAS7 reduction of 10 points or more: 29.2 %
  Responder, UAS7 reduction from baseline of 10 points or more: 23 (65.7) n (%)
[7]
  Non-responder, UAS7 reduction from baseline of 10 points or more: 20 (48.8) n (%)
  RRD (%) for rilzabrutinib vs. placebo, UAS7 reduction of 10 points or more: 2.8 %
  Responder, UAS7 reduction from baseline of 10 points or more: 21 (51.2) n (%)
[8]
  UAS7 Change from baseline Mean (SD): −14.01 (11.59)
  UAS7 Change from baseline Median: −14.50
  UAS7 Mean (SD): 15.22 (14.36)
  UAS7 Median: 13.50
  UAS7 Percent change from baseline Mean (SD): −50.88 (41.19) %
  UAS7 Percent change from baseline Median: −51.79%
[9]
  UAS7 Change from baseline Mean (SD): −19.40 (18.66)
  UAS7 Change from baseline Median: −23.00
  UAS7 Mean (SD): 12.60 (14.98)
  UAS7 Median: 4.00
  UAS7 Percent change from baseline Mean (SD): −55.61 (51.03) %
  UAS7 Percent change from baseline Median: −85.19%
[10]
  Non-responder, UAS7 reduction from baseline of 10 points or more: 17 (48.6) n (%)
  OR for rilzabrutinib vs. placebo, UAS7 reduction of 10 points or more: 1.312
  RRD (%) for rilzabrutinib vs. placebo, UAS7 reduction of 10 points or more: 7.2 %
  Responder, UAS7 reduction from baseline of 10 points or more: 18 (51.4) n (%)
[11]
  Non-responder, UAS7 reduction from baseline of 10 points or more: 19 (50.0) n (%)
  OR for rilzabrutinib vs. placebo, UAS7 reduction of 10 points or more: 1.159
  RRD (%) for rilzabrutinib vs. placebo, UAS7 reduction of 10 points or more: 3.5 %
  Responder, UAS7 reduction from baseline of 10 points or more: 19 (50.0) n (%)
[12]
  UAS7 Change from baseline Mean (SD): −11.73 (10.20)
  UAS7 Change from baseline Median: −10.00
  UAS7 Mean (SD): 20.27 (10.69)
  UAS7 Median: 17.00
  UAS7 Percent change from baseline Mean (SD): −36.15 (29.79) %
  UAS7 Percent change from baseline Median: −36.70%
[13]
  UAS7 Change from baseline Mean (SD): −25.00 (NC)
  UAS7 Change from baseline Median: −25.00
  UAS7 Mean (SD): 16.00 (NC)
  UAS7 Median: 16.00
  UAS7 Percent change from baseline Mean (SD): −60.98 (NC) %
  UAS7 Percent change from baseline Median: −60.98%
[14]
  Non-responder, UAS7 reduction from baseline of 10 points or more: 19 (51.4) n (%)
  OR for rilzabrutinib vs. placebo, UAS7 reduction of 10 points or more: 1.190
  RRD (%) for rilzabrutinib vs. placebo, UAS7 reduction of 10 points or more: 4.1 %
  Responder, UAS7 reduction from baseline of 10 points or more: 18 (48.6) n (%)
